What was measured:
[1] = target: T1, ctDnf1p-Cdc50p (Thermochaetoides thermophila, UniProt G0S196); experiment: cryo-EM structure in lipid nanodiscs, […] Å; parameters: gene DNF1; purified heterodimer; reconstituted into lipid nanodiscs (MSP) for cryo-EM; printed residues D606 (phosphorylation site), Q549, N550, S555, S559, E561, N1153, S1158; with Cell division control protein 50 (CDC50 family beta-subunit); settings: E1-ATP state; nucleotide-binding site, extended conformation
[2] = target: T1, ctDnf1p-Cdc50p; experiment: ATPase activity; type: biochemical; parameters: gene DNF1; purified heterodimer; reconstituted into lipid nanodiscs (MSP) for cryo-EM; printed residues D606 (phosphorylation site), Q549, N550, S555, S559, E561, N1153, S1158; with Cell division control protein 50 (CDC50 family beta-subunit); settings: phospholipid-dependent
[3] = target: T1, ctDnf1p-Cdc50p; parameters: gene DNF1; settings: E2P state; phosphorylation site D606; phosphate analogue

T1 sequence (G0S196 whole entry): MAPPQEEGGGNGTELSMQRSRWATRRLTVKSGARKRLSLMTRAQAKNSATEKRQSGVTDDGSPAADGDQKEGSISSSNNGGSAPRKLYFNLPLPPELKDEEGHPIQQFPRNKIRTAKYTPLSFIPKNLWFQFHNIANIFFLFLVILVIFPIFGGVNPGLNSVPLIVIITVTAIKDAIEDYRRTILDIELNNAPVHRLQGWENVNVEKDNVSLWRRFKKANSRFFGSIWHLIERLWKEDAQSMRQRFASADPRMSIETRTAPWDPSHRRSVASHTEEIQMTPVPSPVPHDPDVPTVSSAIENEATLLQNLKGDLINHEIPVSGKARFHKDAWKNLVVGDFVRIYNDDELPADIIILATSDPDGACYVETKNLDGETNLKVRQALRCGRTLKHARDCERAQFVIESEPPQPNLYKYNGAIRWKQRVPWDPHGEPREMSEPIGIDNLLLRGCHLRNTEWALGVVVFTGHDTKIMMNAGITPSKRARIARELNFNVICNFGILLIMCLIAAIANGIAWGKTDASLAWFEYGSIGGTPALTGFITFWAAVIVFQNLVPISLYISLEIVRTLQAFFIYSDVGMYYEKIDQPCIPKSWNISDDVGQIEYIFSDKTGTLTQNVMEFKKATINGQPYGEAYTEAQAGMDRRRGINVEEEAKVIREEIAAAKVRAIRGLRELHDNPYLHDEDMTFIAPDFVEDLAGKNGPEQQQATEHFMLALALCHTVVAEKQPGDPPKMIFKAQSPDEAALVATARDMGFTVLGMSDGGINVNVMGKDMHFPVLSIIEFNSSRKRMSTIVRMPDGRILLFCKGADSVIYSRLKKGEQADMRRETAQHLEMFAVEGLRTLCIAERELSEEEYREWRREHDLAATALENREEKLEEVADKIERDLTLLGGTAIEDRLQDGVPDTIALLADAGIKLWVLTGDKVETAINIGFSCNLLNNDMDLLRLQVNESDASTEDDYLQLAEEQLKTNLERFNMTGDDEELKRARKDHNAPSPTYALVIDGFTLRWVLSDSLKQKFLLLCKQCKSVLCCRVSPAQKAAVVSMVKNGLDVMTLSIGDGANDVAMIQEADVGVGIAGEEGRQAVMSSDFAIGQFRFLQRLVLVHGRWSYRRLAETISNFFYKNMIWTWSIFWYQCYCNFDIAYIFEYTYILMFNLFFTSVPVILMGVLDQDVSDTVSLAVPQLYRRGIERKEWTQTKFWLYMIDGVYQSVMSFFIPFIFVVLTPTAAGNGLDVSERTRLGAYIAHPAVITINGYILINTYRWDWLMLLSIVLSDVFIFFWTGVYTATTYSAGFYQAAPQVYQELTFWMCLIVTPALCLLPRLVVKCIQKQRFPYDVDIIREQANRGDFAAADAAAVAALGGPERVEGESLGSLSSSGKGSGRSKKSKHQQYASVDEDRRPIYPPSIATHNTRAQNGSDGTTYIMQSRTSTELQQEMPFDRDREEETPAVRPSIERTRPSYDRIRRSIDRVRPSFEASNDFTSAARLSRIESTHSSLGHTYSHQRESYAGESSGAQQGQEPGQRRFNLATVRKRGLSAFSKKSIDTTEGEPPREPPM
T1 sequence (G0SDN0 whole entry partner): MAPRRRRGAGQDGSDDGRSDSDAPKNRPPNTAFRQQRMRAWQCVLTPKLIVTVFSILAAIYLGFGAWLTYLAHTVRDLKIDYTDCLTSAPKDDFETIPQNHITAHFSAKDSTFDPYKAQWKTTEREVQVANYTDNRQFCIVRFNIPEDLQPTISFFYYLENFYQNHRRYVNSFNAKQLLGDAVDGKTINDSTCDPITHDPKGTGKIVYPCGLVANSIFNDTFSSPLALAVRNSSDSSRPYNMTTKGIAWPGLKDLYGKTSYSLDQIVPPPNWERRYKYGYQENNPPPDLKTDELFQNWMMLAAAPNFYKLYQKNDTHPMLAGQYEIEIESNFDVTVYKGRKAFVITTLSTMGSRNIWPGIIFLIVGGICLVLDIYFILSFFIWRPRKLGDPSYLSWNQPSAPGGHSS

Nc1ncnc2c1ncn2[C@@H]1O[C@H](COP(=O)(O)OP(=O)(O)CP(=O)(O)O)[C@@H](O)[C@H]1O [AMPPCP]
cryo-EM structure in lipid nanodiscs, 3.5 Å [1]: In the E1-ATP structure, AMPPCP adapts an extended conformation

Nc1ncnc2c1ncn2[C@@H]1O[C@H](COP(=O)(O)OP(=O)(O)OP(=O)(O)O)[C@@H](O)[C@H]1O [ATP]
ATPase activity [2]: The purified ctDnf1p-Cdc50p heterodimer showed phospholipid-dependent ATPase activity

[F][Be-]([F])[F] [BeF3^−]
cryo-EM structure in lipid nanodiscs, 3.4 Å [3]: In the E2P structure, BeF3^− is bound at the phosphorylation site D606

Source: publication PMC7251018, “Structures of a P4-ATPase lipid flippase in lipid bilayers” (Protein & Cell, 2020)
